Assay results: patent US6048882A, “Prophylactic and therapeutic agent for hepatic diseases” (Nisshin Flour Milling Co., Ltd., priority 1995, dated 2000)
Where a name gives a salt, the structure may show the parent alone. Read-outs that look alike come from different tables or passages of the source.

Columns and labels:
[1] = test system: experimental hepatopathy models prepared by administering carbon tetrachloride; assay: Inhibitory action on hepatopathy in hepatopathy models by carbon tetrachloride (lipid emulsion; serum GPT and GOT); type: in vivo, ddY strain male mice; details: Mus musculus, iv, 20 h, i.v., one hour before carbon tetrachloride; for inhibition in vivo at 0.001 mg/kg: dose 1 μg/kg; for inhibition in vivo at 0.0001 mg/kg: dose 0.1 μg/kg
Description: Carbon tetrachloride was diluted with olive oil to a concentration of 0.5% when administered. The present isoprenylamine derivatives were formulated into the lipid emulsions according to the method described in Pharmaceutical Example 8 and intravenously administered at a dose of 0.1-10 μg/kg one hour before the administration of carbon tetrachloride. 20 hours after the administration of carbon tetrachloride, blood samples were collected from animals under ether anesthesia and centrifuged. Then, serum GPT and GOT were determined and the respective inhibition rates were calculated on the bases of the serum GPT and GOT values obtained when the present isoprenylamine derivative was not administered being defined as 100, respectively.

[2] = test system: experimental hepatopathy models prepared by administering carbon tetrachloride; assay: Inhibitory action on hepatopathy in hepatopathy models by carbon tetrachloride (suspension with 2% Tween 80; serum GPT and GOT); type: in vivo, ddY strain male mice; details: suspension with 2% Tween 80, i.v., dose 0.1 mg/kg, one hour before carbon tetrachloride
Description: (§1) In these tests, GPT (glutamic-pyruvic transaminase) and GOT (glutamic-oxaloacetic transaminase) were determined using kits for the determination of GPT and GOT upon the method by U. Lippi et al., Iatrozyme TA-Lq (available from Iatron Laboratories Inc.), wherein the NADH formed when enzymes act upon substrates can reduce nitrotetrazolium blue (NTB) via 1-methoxy-5-methylphenazinium methylsulfate (1-methoxy PMS) to form formazan, which is then subjected to colorimetric analysis at a wavelength of 560 nm.
Inhibitory actions of the present isoprenylamine derivatives was evaluated by inhibition rates of GPT and GOT in experimental hepatopathy models prepared by administering carbon tetrachloride.
The experimental hepatopathy model was prepared by intraperitoneal administration of 0.02 ml/kg carbon tetrachloride to ddY strain male mice (6 weeks old, body weight of about 30 g). Carbon tetrachloride was diluted with olive oil to a concentration of 0.5% when administered. […]
(§2) 20 hours after the administration of carbon tetrachloride, blood samples were collected from animals under ether anesthesia and centrifuged. Then, serum GPT and GOT were determined and the respective inhibition rates were calculated on the bases of the serum GPT and GOT values obtained when Compound 6 was not administered being defined as 100, respectively.

[3] = test system: experimental hepatopathy models prepared by D-galactosamine administration; assay: Inhibitory action on hepatopathy in hepatopathy models by D-galactosamine (serum GPT and GOT); type: in vivo, Wistar strain male mice; details: iv, 24 h, lipid emulsion, i.v., dose 10 μg/kg, 2 hours after D-galactosamine
Description: as §1
Inhibitory action of lipid emulsions containing the present isoprenylamine derivatives was evaluated by inhibition rates of GPT and GOT in experimental hepatopathy models prepared by D-galactosamine administration.
The experimental hepatopathy model was prepared by intraperitoneal administration of D-galactosamine at 400 mg/kg to Wistar strain male […] weighing about 170 g. The present isoprenylamine derivative was formulated to a lipid emulsion according to the method described in Pharmaceutical Example 8, and was intravenously administered at a dose of 10-30 μg/kg 2 hours after the administration of D-galactosamine.
as §2, with “24” for “20”, “D-galactosamine administration,” for “administration of carbon tetrachloride,”, “form” for “from”, “the present isoprenylamine derivatives were” for “Compound 6 was”
For comparison, glycyrrhizin ammonium (Tokyo Kasei Co.) dissolved in distilled water was administered in a similar manner to that for the isoprenylamine derivatives, blood sampling and determination were conducted and the serum GPT and GOT inhibition rates were calculated.

| Compound | inhibition in vivo at 0.001 mg/kg ([1]; read-out: GOT inhibition) | inhibition in vivo at 0.001 mg/kg ([1]; read-out: GPT inhibition) | GOT inhibition [2] | GPT inhibition [2] | inhibition in vivo at 0.01 mg/kg ([3]; read-out: GOT inhibition) | inhibition in vivo at 0.01 mg/kg ([3]; read-out: GPT inhibition) | inhibition in vivo at 0.0001 mg/kg ([1]; read-out: GOT inhibition) | inhibition in vivo at 0.0001 mg/kg ([1]; read-out: GPT inhibition) |
| --- | --- | --- | --- | --- | --- | --- | --- | --- |
| CC(C)=CCC/C(C)=C/CC/C(C)=C/CC/C(C)=C/CC/C(C)=C/CC/C(C)=C/CC/C(C)=C/CC/C(C)=C/CC/C(C)=C/CNCc1ccc2c(c1)OCO2 [Compound 6, N-solanesylpiperonylamine hydrochloride] | 50% | 40% | 37% | 34% | 40% | 40% |  |  |
| CC(C)=CCC/C(C)=C/CC/C(C)=C/CC/C(C)=C/CC/C(C)=C/CC/C(C)=C/CC/C(C)=C/CC/C(C)=C/CC/C(C)=C/CC/C(C)=C/CNCc1ccc2c(c1)OCO2 [Compound 20, N-decaprenylpiperonylamine hydrochloride] |  |  |  |  | 44% | 43% | 53% | 60% |
